These results are taken from US6541208B1, “Diagnostic method for distinguishing HIV-associated dementia from other forms of dementia” (University of Maryland Biotechnology Institute, priority 1998, dated 2003).

The test system of one assay is MCP-1 activity. The settings on record: point mutations Thr-10 to Arg and Tyr-13 to Ile; cited from earlier work.
For assay [1], the system named is astrocytic MCP-1 expression. Kind of assay: Northern blot analysis of MCP-1 RNA in stimulated human astrocytes. It is filed as cell-based. The text has this: FIG. 1A—Total RNA was extracted from T lymphoblastoid HUT 78 cells (ATCC), and from variously treated human astrocytes. Ten μg per lane were then run on a 1% agarose-6% formaldehyde gel. Following transfer of RNA to nitrocellulose, the blot was probed with the full-length cDNA for MCP-1, and subsequently, RANTES. RNA from untreated astrocytes was run in lanes 2 and 4. […] Astrocytic expression of RANTES was not detected.
FIG. 1B—Similar experience except that RNA from HUT 78 cells (lane 1) was compared to RNA from astrocytes that were unstimulated (lane 2) or stimulated for 2 hr with 100 nM Tat (lane 3), 25 μM TPCK followed by 100 nM Tat (lane 4) or 25 μM TPCK (lane 5).
Brain tissue from 12-14 wk human fetuses was obtained in accordance with NIH guidelines. The tissue was mechanically disrupted by aspiration through a 19-gauge needle, washed in Eagle's minimal essential medium (EMEM) and then distributed into tissue culture flasks. Cells were maintained in EMEM containing 10% fetal bovine serum, 2 mM L-glutamine and 5 μg/ml gentamicin. Several days later, flasks were placed into an orbital incubator shaker at 37° C. and 210 rpm for 6 hr. Non-adherent cells were removed. A portion of the adherent cells were later stained with an antibody to glial fibrallary acidic protein and only those cultures which were >95% positive were used. […]

Turning to “MCP-1 protein with point mutations of Thr-10 to Arg and Tyr-13 to Ile: mutant MCP-1 protein from Beal et al., contemplated as MCP-1 antagonist”, the “MCP-1 activity of the mutant protein” value in the assay on MCP-1 activity is reported as “greatly reduced MCP-1 activity”. Regarding `Cc1ccc(S(=O)(=O)N[C@@H](Cc2ccccc2)C(=O)CCl)cc1` [TPCK, n-tosli-L-phenylalanine chloromethyl ketone, reference compound], the “effect on Tat-induced increase in MCP-1 encoding RNA” value in assay [1] (25 μM TPCK followed by 100 nM Tat, 2 hr) is on record as “inhibited”.

“interleukin-1β: cytokine used at 5 ng/ml to stimulate astrocytes [reference compound]”: the “astrocytic MCP-1 expression (MCP-1 encoding RNA)” value in assay [1] (5 ng/ml interleukin-1β, 4 hr stimulation, human astrocytes) is given as “increase in astrocytic MCP-1 expression”.
